Measured values taken from patent US12171787B2, “Methods and compositions for modulating angiogenesis and vasculogenesis” (SanBio, Inc., priority 2012, dated 2024).

Columns and labels:
[1] = test system: human umbilical vein endothelial cells (HUVECs); assay: HUVEC survival: propidium iodide staining of serum/growth factor-starved HUVECs; assay type: cell-based; conditions: 50 nM SU5416 + SB623 cell-conditioned medium, five days, vs SB623 CM alone
Procedure: (§1) Cerebral ischemia can result in loss of nutrient supply to the affected area. To determine if soluble factors from SB623 cells and MSCs have restorative effects on nutrient-deprived endothelial cells, human umbilical vein endothelial cells (HUVECs) were cultured in medium depleted of serum and growth factors for 24 hours, then exposed to conditioned medium (CM) from MSCs or SB623 cells. Control cultures remained in serum- and growth factor-depleted medium without addition of CM. Viability and proliferative capacity of the HUVECs were then assessed.
(§2) For these experiments, human umbilical vein endothelial cells were passed twice, then 7.5×10^5 cells were plated in EBM-2/ECGS medium (Endothelial Basal Medium-2/Endothelial Cell Growth Supplements; Lonza, Walkersville, MD) on T-75 flasks coated with 0.1% gelatin and cultured for 24 hours. The HUVEC monolayers were rinsed twice with warm PBS and incubated with 12 ml of fresh EBM-2 medium overnight at 37° C., 5% CO2. Effects of CM were then assessed by withdrawing 6 ml of medium from each flask, and replacing it with 6 ml fresh OptiMEM (control), 6 ml MSC conditioned medium, or 6 ml SB623 cell conditioned medium (conditioned media prepared as described in Example 1). […]
To quantify cell death, cells were stained with propidium iodide (PI), since dead cells are permeable to PI. […]

[2] = test system: human umbilical vein endothelial cells (HUVECs); assay: HUVEC survival: fraction of Bcl-2-expressing cells by flow cytometry; assay type: cell-based; conditions: 50 nM SU5416 + SB623 cell-conditioned medium, five days, vs SB623 CM alone
Procedure: as §1
as §2, with “The HUVEC monolayers were rinsed twice with warm PBS and incubated with 12 ml of fresh EBM-2 medium overnight at 37° C., 5% CO2.” left out
Bcl-2 is an anti-apoptotic protein originally identified as being overexpressed in certain B-cell lymphomas. Accordingly, the fraction of cells expressing the Bcl-2 protein was measured in serum/growth factor-starved HUVECs as an indicator of their apoptotic potential. […]

[3] = test system: human umbilical vein endothelial cells (HUVECs); assay: HUVEC proliferation: fraction of Ki67-expressing cells by flow cytometry; assay type: cell-based; conditions: 50 nM SU5416 + SB623 cell conditioned medium, five days
Procedure: Ki67 is a protein present in cells exiting from the GO (quiescent) phase of the cell cycle; therefore Ki67 levels can be used as a measure of cell proliferation. The fraction of cells expressing Ki67 protein was measured in HUVECs that had been starved for serum and growth factors, then cultured with conditioned medium from either MSCs or SB623 cells.
For Ki67 measurement, HUVECs were cultured and exposed to CM as described in Example 2. Cells were fixed in 4% paraformaldehyde and permeabilized with 0.1% Triton-X100 for one hour. Following permeabilization, cells were stained for one hour on ice with fluorescein-conjugated anti-KI67 antibody, then samples were washed, acquired, and analyzed on the FL-1 channel of a BD FACSCalibur. Cells exposed to fluorescein-conjugated IgG were used as a negative control. For these assays, 3 different human donor pairs were tested.
The effect of the VEGF receptor inhibitor on stimulation of HUVEC proliferation by SB623 cell factors was also assessed. Assays for expression of Ki67 were conducted as described in Example 3, except that 50 nM SU5416 was added to cultures 30 minutes before addition of conditioned medium, and cells were cultured for five days, instead of seven, before assay.

HUVECs = assay: HUVEC tube formation assay; assay type: cell-based, human
Text: A HUVEC tube formation assay was used to test the ability of MSCs and SB623 cells to elaborate factors that stimulate vessel formation. See, for example, E J Smith & C A Staton, “Tubule formation assays,” in Angiogenesis Assays—A Critical Appraisal of Current Techniques, (Staton, Lewis & Bicknell, eds.). John Wiley & Sons, Ltd., West Sussex, UK, pp. 65-87, 2006; and Goodwin (2007) Microvasc. Res. 74:172-183.
HUVECs were passed five times in EBM-2/ECGS medium, then transferred to alpha-MEM/0.5% FBS/2 mM glutamine/pen-strep, at a density of 1×10^5 cells/ml. After 24 hours, HUVECs were harvested using 0.25% trypsin-EDTA, rinsed, and resuspended in α-MEM/2 mM glutamine/pen-strep at a density of 1×10^5 cells/ml. A mixture of 75 ul of HUVECs plus 75 ul of either MSC- or SB623-conditioned medium (Example 1), or 75 ul OptiMEM medium as a negative control, was added to each well of a 96-well plate that had been pre-treated by adding 50 ul of Reduced Growth Factor (RGF)-basement gel (Invitrogen, Carslsbad, CA) per well and incubating the plates at 37° C. for 45 minutes. For this assay, MSCs were obtained from 3 different human donors, and a portion of the MSCs from each donor were converted to SB623 cells.
After 16 hours, the cultures were examined by phase contrast microscopy and photographed. The number of complete tubes (formed by contiguous cells) was quantified by an experimenter blinded to the group. […] Thus, MSCs and SB623 cells secrete factors that promote vasculogenesis.
HUVEC tube formation assays with conditioned medium from MSCs and SB623 cells were conducted as described in Example 4, in the presence and absence of the VEGF2 receptor inhibitor SU5416.
Quantitation of tube formation was conducted, as described in Example 4, for HUVECs exposed to SB623 cell conditioned medium in the presence and absence of SU5416, at 16 and 40 hours after plating.

aortic rings = assay: Aortic ring assay (vessel outgrowth and branching); assay type: cell-based, Sprague-Dawley rats; conditions: 50 nM SU5416, rat aortic rings, 10 days
Text: Restoration of vasculature after ischemic injury requires that surviving endothelial cells receive signals that prompt their migration and invasion. Such signals may arise from vascular smooth muscle cells, monocytes, and/or macrophages, among others. To test for secretion of factors involved in vessel sprouting and branching, the aortic ring assay was used. See, for example, Nicosia & Ottinetti (1990) Lab. Invest. 63:115-122 and Nicosia (2009) J. Cell. Mol. Med. 13:4113-4136.
For preparation of aortic rings, adult Sprague-Dawley rats were euthanized prior to dissection. After clamping off its two ends, the aorta was removed and placed in ice-cold α-MEM/pen-strep medium prior to removal of the external adipose layer. Adipose-free aorta was rinsed twice with ice-cold EBM-2/pen-strep medium before being sectioned into rings of 1.0 mm thickness. […]
To assess the angiogenic activity of MSC- and SB623-derived factors, phase contrast photographs were taken on Day 10, and results were quantified by an experimenter blinded to the group, by counting vessel outgrowth and branching. Growth of new vessels was quantitated by measuring the number of vessels growing out from the ring; and vessel branching was quantitated by measuring the number of branchpoints present in vessels growing out from the aortic ring. […]

Row | Molecule | propidium iodide uptake by HUVECs in SB623 conditioned medium plus inhibitor [1] | Bcl-2 expression by HUVECs in SB623 conditioned medium plus inhibitor [2] | effect on enhancement of HUVEC proliferation (Ki67) by SB623 conditioned medium [3] | effect on positive effect of SB623 CM on tube formation (quantitation) (HUVECs; 50 nM SU5416, 16 and 40 hours after plating) | effect on stimulation of tube formation by VEGF, MSC-CM and SB623-CM (HUVECs; 50 nM SU5416, 16 hours) | vessel outgrowth and branching in SB623 cell-conditioned medium plus inhibitor (aortic rings) | tube formation by HUVECs (positive control) (HUVECs; 10 ng/ml VEGF, 16 hours)
1 | Cc1cc(C)c(/C=C2\C(=O)Nc3ccccc32)[nH]1 [SU5416] | more cells take up PI | fewer cells express | partially reversed | completely reversed | reduces the stimulation of tube formation | reduced | 
2 | VEGF |  |  |  |  |  |  | promote tube formation
